Results: ChEMBL document CHEMBL5614415, “Recent advances and challenges of revolutionizing drug-resistant tuberculosis treatment” (Eur J Med Chem, 2024)
≈ marks a conversion by molar mass, not a printed value.

Tests used:
[1] = system: Mycobacterium tuberculosis; assay: Antimicrobial activity against Mycobacterium tuberculosis H37Rv ATCC 27294 assessed as inhibition of bacterial growth incubated for […] by broth dilution method; assay type: functional; settings: time lower 18 hrs
[2] = system: Mycobacterium tuberculosis; assay: Antimycobacterial activity against Mycobacterium tuberculosis H37Rv assessed as reduction in bacterial growth after 7 days by resazurin based fluorescence assay; assay type: functional; settings: 168 h, time 7 day
[3] = system: Mycobacterium tuberculosis; assay: Antibacterial activity against Mycobacterium tuberculosis H37Rv; assay type: functional
[4] = system: Mycobacterium tuberculosis; assay: Antibacterial activity against Mycobacterium tuberculosis H37Rv assessed as reduction in bacterial growth measured after 7 days by broth micro-dilution method; assay type: functional; settings: 168 h, time 7 day
[5] = system: Mycobacterium tuberculosis; assay: Antimycobacterial activity against Mycobacterium tuberculosis H37Rv ATCC 27294 assessed as reduction in bacterial cell growth by resazurin reduction method; assay type: functional
[6] = system: Mycobacterium tuberculosis; assay: Antibacterial activity against Mycobacterium tuberculosis ATCC 35801 assessed as inhibition of bacterial growth incubated for 7 days by resazurin microtiter assay; assay type: functional; settings: ATCC 35801, 168 h, time 7 day
[7] = system: Mycobacterium tuberculosis; assay: Antibacterial activity against Mycobacterium tuberculosis H37Rv assessed as bacterial growth inhibition by CLSI broth microdilution method; assay type: functional
[8] = system: Mycobacterium tuberculosis; assay: Antimycobacterial activity against Mycobacterium tuberculosis […] assessed as reduction in bacterial growth; assay type: functional
Cytochrome P450 2C9 = Cytochrome P450 2C9 (Homo sapiens, UniProt P11712); assay: Inhibition of CYP2C9 (unknown origin); assay type: ADME
Cytochrome P450 2C9, sequence (P11712 whole entry): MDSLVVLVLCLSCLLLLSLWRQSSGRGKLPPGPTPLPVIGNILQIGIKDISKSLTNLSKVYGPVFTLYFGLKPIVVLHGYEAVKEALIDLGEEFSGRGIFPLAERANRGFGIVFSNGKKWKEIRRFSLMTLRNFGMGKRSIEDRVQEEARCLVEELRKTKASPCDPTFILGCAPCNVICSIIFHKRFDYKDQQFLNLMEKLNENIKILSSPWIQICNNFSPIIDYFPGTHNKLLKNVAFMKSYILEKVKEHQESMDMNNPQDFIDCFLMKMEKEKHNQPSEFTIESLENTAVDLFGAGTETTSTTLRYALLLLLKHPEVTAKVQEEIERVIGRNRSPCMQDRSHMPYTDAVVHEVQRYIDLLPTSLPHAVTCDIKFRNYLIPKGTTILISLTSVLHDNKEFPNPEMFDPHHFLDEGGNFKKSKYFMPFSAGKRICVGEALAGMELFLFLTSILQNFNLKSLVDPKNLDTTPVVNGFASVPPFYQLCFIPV

[9] = system: Mycobacterium tuberculosis; assay: Antibacterial activity against wild type Mycobacterium tuberculosis H37Rv infected in BALB/c mouse assessed as log reduction in colony forming units at 20 mg/kg; assay type: functional
[10] = system: Mycobacterium tuberculosis; assay: Antimycobacterial activity against Mycobacterium tuberculosis H37Rv assessed as reduction in bacterial cell growth by resazurin reduction method; assay type: functional
[11] = system: Mycobacterium tuberculosis; assay: Antitubercular activity against Mycobacterium tuberculosis H37Ra assessed as inhibition of bacterial growth incubated for 7 days by Microdilution Alamar Blue assay; assay type: functional; settings: 168 h, time 7 day
Salmonella typhimurium = assay: Antibacterial activity against Salmonella typhimurium DT104 assessed as inhibition of bacterial growth incubated for 18 hrs by CLSI protocol based microbroth dilution method; assay type: functional, Salmonella enterica subsp. enterica serovar Typhimurium; settings: Salmonella enterica
[12] = system: Mycobacterium tuberculosis; assay: Antimycobacterial activity against Mycobacterium tuberculosis; assay type: functional
[13] = system: Mycobacterium tuberculosis; assay: Antimycobacterial activity against Mycobacterium tuberculosis assessed as reduction in bacterial growth; assay type: functional
Mycobacterium avium = assay: Antimycobacterial activity against Mycobacterium avium assessed as bacterial growth inhibtion; assay type: functional
Staphylococcus aureus = assay: Antibacterial activity against Staphylococcus aureus assessed as reduction in microbial growth by CLSI protocol based broth micro-dilution method; assay type: functional
[14] = system: Mycobacterium tuberculosis; assay: Antimycobacterial activity against Mycobacterium tuberculosis H37Rv ATCC 27294 assessed as reduction in bacterial cell growth; assay type: functional
[15] = system: Mycobacterium tuberculosis; assay: Antimycobacterial activity against Mycobacterium tuberculosis assessed as bacterial growth inhibition; assay type: functional
[16] = system: Mycolicibacterium smegmatis; assay: Antimicrobial activity against Mycobacterium smegmatis ATCC 700084 assessed as bacterial growth inhibition; assay type: functional
[17] = system: Mycolicibacterium smegmatis; assay: Antimycobacterial activity against Mycobacterium smegmatis mc2 155 assessed as reduction in bacterial cell growth by resazurin reduction method; assay type: functional

SMILES: C(=C\c1cc2ccc(C3=NCCN3)cc2[nH]1)/c1cc2ccc(C3=NCCN3)cc2[nH]1
- MIC50 [1]: 0.03 µg/mL (≈ 0.076 µM)

SMILES: c1cc2cc(-c3ccc(-c4cc5ccc(C6=NCCN6)cc5[nH]4)cc3)[nH]c2cc1C1=NCCN1
- MIC50 [1]: 0.04 µg/mL (≈ 0.09 µM)

SMILES: c1cc2cc(-c3ccc4cc(C5=NCCN5)[nH]c4c3)[nH]c2cc1C1=NCCN1
- MIC50 [1]: 0.08 µg/mL (≈ 0.217 µM)

SMILES: c1cc2cc(-c3ccc4cc(-c5ccc6oc(C7=NCCN7)cc6c5)[nH]c4c3)[nH]c2cc1C1=NCCN1
- MIC50 [1]: 0.02 µg/mL (≈ 0.0413 µM)

SMILES: O=C(Nc1nc(-c2ccccn2)cs1)c1ccc(Cl)s1
- MIC50 [2]: 0.25 µg/mL (≈ 0.777 µM)

SMILES: O=[N+]([O-])c1cn2c(n1)OC[C@@H](OCc1ccc(-c3ccc(C(F)(F)F)cc3)nc1)C2
- MIC50 [3]: < 0.015 µg/mL

SMILES: c1ccc(CC2CCN(CC3CCN(CC45CC6CC(CC(C6)C4)C5)CC3)CC2)cc1
- MIC90 [4]: 7 µg/mL (≈ 16.6 µM)

SMILES: CCN(CC)CCOc1c(C(=O)OC)c2c3c(oc2c2ccccc12)C(=O)c1ccccc1C3=O
- MIC50 [5]: 0.19 µg/mL (≈ 0.403 µM)

SMILES: OC1CCN(C2CCN(CC34CC5CC(CC(C5)C3)C4)CC2)CC1
- MIC90 [4]: > 10 µg/mL

SMILES: CCNC(=O)Nc1nc2cc(-c3cnc(C(C)(C)O)nc3)c(F)c([C@H]3CCCO3)c2[nH]1
- MIC50 [6]: 0.03 µg/mL (≈ 0.07 µM)

SMILES: CC1(C)CCC(NC(=O)c2cc3c(Cl)cc(Cl)cc3[nH]2)CC1
- MIC50 [7]: 0.005 µg/mL (≈ 0.0147 µM)

SMILES: CCCCc1ccc(NC(=O)C2=CCN(C)[C@@H]([C@H](O[C@@H]3O[C@H](CN)[C@@H](O)[C@H]3O)[C@H]3O[C@@H](n4ccc(=O)[nH]c4=O)[C@H](O)[C@@H]3O)C(=O)N2C)cc1
- MIC50 [8]: 3.13 µg/mL (≈ 4.54 µM)

SMILES: CCOC(=O)NC(=O)c1ccsc1NC(=O)c1ccn2cnnc2c1
- IC50 (Cytochrome P450 2C9): > 10000 nM

SMILES: CCOc1cc([C@](O)(CCN(C)C)[C@@H](c2cc3cc(Br)ccc3nc2OC)c2cccc(OC)c2F)cc(OC)n1
- log(activity) [9]: 1.5

SMILES: CCOC(=O)NC(=O)c1cc(F)sc1NC(=O)c1nc2ccccc2s1
- IC50 (Cytochrome P450 2C9): 150 nM

SMILES: CC(=O)N1/C(=C/c2ccc(Oc3ccc(Cl)cc3)cc2)C(=O)c2cc(Cl)ccc21
- MIC99 [10]: 0.13 µg/mL (≈ 0.306 µM)

SMILES: CC(=O)N1/C(=C/c2ccc(Oc3ccc(Cl)cc3)cc2)C(=O)c2ccccc21
- MIC99 [10]: 0.18 µg/mL (≈ 0.462 µM)

SMILES: CC(=O)N1/C(=C/c2ccc(-c3ccccc3)cc2)C(=O)c2ccccc21
- MIC99 [10]: 0.38 µg/mL (≈ 1.12 µM)

SMILES: CC(=O)N1/C(=C/c2ccc(-c3ccsc3)cc2)C(=O)c2ccccc21
- MIC99 [10]: 0.16 µg/mL (≈ 0.463 µM)

SMILES: CC(=O)N1/C(=C/c2cccc(-c3ccccc3)c2)C(=O)c2ccccc21
- MIC99 [10]: 0.69 µg/mL (≈ 2.03 µM)

SMILES: CC(=O)N1/C(=C/c2ccc(Br)cc2)C(=O)c2ccccc21
- MIC99 [10]: 0.42 µg/mL (≈ 1.23 µM)

SMILES: COC(=O)c1ccsc1NC(=O)C1CCCN1 (configuration not stated)
- MIC50 [11]: 0.8 µg/mL (≈ 3.15 µM)

SMILES: OCC1CCCN1CC1CCN(CC23CC4CC(CC(C4)C2)C3)CC1 (configuration not stated)
- MIC90 [4]: > 10 µg/mL

SMILES: CCOC(=O)NC(=O)c1ccsc1NC(=O)c1nc2cccnc2s1
- IC50 (Cytochrome P450 2C9): 130 nM

SMILES: COc1c(N2CC3(CC3)[C@@](C)(N)C2)c(F)cc2c(=O)c(C(=O)O)cn(C3C[C@H]3F)c12 (some centres not stated)
- MIC90 (Salmonella typhimurium): 0.06 µg/mL (≈ 0.143 µM)

SMILES: CN[C@@H]1[C@H](O)[C@H](NC)[C@H]2O[C@@]3(O)[C@H](NC(=O)Cc4ccc(Cl)cn4)C[C@@H](C)C[C@H]3O[C@@H]2[C@H]1O
- MIC50 [12]: 1.6 µg/mL (≈ 3.3 µM)

SMILES: OC1CCN(CC2CCC(CNCc3ccccc3)CC2)CC1 (configuration not stated)
- MIC90 [4]: > 12 µg/mL

SMILES: O=C(OCc1ccccc1)c1ccsc1NC(=O)C1CCCN1 (configuration not stated)
- MIC50 [11]: 1.3 µg/mL (≈ 3.93 µM)

SMILES: CN[C@@H]1[C@H](O)[C@H](NC)[C@H]2O[C@@]3(O)[C@H](NC(=O)Cc4ccc(F)cn4)C[C@@H](C)C[C@H]3O[C@@H]2[C@H]1O
- MIC50 [12]: 0.8 µg/mL (≈ 1.71 µM)

SMILES: OC1CCN(C2CCN(Cc3ccccc3)CC2)CC1
- MIC90 [4]: > 10 µg/mL

SMILES: OC1CCN(CC2CCN(Cc3ccccc3)CC2)CC1
- MIC90 [4]: 6.2 µg/mL (≈ 21.5 µM)

SMILES: CCCCCCCCCC(=O)C[C@@H]1[C@H](OC)C([C@@H](O[C@H]2OC(C(=O)N[C@H]3CCC[C@@H](C)NC3=O)=C[C@H](O)[C@@H]2O)C(N)=O)O[C@H]1n1ccc(=O)[nH]c1=O (some centres not stated)
- MIC50 [8]: 1 µg/mL (≈ 1.36 µM)

SMILES: O=C(Oc1ccccc1)c1ccsc1NC(=O)C1CCCN1 (configuration not stated)
- MIC50 [11]: 2.4 µg/mL (≈ 7.59 µM)

SMILES: OC1CCN(CC2CCN(CC34CC5CC(CC(C5)C3)C4)CC2)CC1
- MIC90 [4]: 4 µg/mL (≈ 11.5 µM)

SMILES: COc1nc2ccc(Br)cc2cc1[C@@H](c1ccccc1)[C@@](O)(CCN(C)C)c1cccc2ccccc12 [BEDAQUILINE]
- MIC50 [13]: 0.01 µg/mL (≈ 0.018 µM)
- MIC50 (Mycobacterium avium): 0.01 µg/mL (≈ 0.018 µM)

SMILES: C[C@]1(COc2ccc(N3CCC(Oc4ccc(OC(F)(F)F)cc4)CC3)cc2)Cn2cc([N+](=O)[O-])nc2O1 [DELAMANID]
- MIC50 [3]: 0.006 µg/mL (≈ 0.0112 µM)

SMILES: CN1CCN(c2ccc(N3C[C@H](CO)OC3=O)cc2F)C=N1 [DELPAZOLID]
- MIC50 (Staphylococcus aureus): 0.5 µg/mL
- MIC50 [14]: 0.5 µg/mL (≈ 1.62 µM)

SMILES: CC(=O)NC[C@H]1CN(c2ccc(N3CCOCC3)c(F)c2)C(=O)O1 [LINEZOLID]
- MIC50 (Staphylococcus aureus): 0.3 µg/mL
- MIC50 [15]: 0.3 µg/mL (≈ 0.889 µM)

SMILES: O=[N+]([O-])c1cn2c(n1)OC[C@@H](OCc1ccc(OC(F)(F)F)cc1)C2 [PRETOMANID]
- MIC50 [3]: 0.015 µg/mL (≈ 0.0418 µM)

SMILES: O=C1CCc2c(OC[C@]3(O)CCN(c4c(F)cc(Cl)cc4F)C[C@H]3O)ccc(F)c2N1 [QUABODEPISTAT]
- MIC50 [12]: 0.00024 µg/mL (≈ 0.000525 µM)

SMILES: CC(C)=CCC/C(C)=C/CNCCNC1C2CC3CC(C2)CC1C3 (configuration not stated) [SQ109]
- MIC50 [12]: 0.12 µg/mL (≈ 0.363 µM)

SMILES: CC(=O)NC[C@H]1CN(c2ccc(N3CCSCC3)c(F)c2)C(=O)O1 [SUTEZOLID]
- MIC50 (Staphylococcus aureus): 0.03 µg/mL
- MIC50 [15]: 0.03 µg/mL (≈ 0.0849 µM)

SMILES: COc1ncnc(Cn2cc(C(=O)NCCO)c3ncc(C)cc32)c1C [TBA-7371]
- MIC50 [8]: 0.28 µg/mL (≈ 0.788 µM)

SMILES: COc1cc([C@](O)(CCN(C)C)[C@@H](c2cc3cc(Br)ccc3nc2OC)c2cccc(OC)c2F)cc(OC)n1 [TBAJ-587]
- MIC50 [16]: < 0.02 µg/mL
- log(activity) [9]: 4.5
- MIC50 (Mycobacterium avium): 0.006 µg/mL (≈ 0.00976 µM)

SMILES: COc1cc([C@](O)(CCN(C)C)[C@@H](c2cc3cc(Br)ccc3nc2OC)c2cc(OC)nc(OC)c2OC)cc(OC)n1 [TBAJ-876]
- MIC50 (Mycobacterium avium): 5 µg/mL (≈ 7.6 µM)

SMILES: CCc1nc2ccc(Cl)cn2c1C(=O)NCc1ccc(N2CCC(c3ccc(OC(F)(F)F)cc3)CC2)cc1 [TELACEBEC]
- MIC90 [17]: 0.0024 µg/mL (≈ 0.00431 µM)
